From patent publication US4859668A, “Method of inhibiting the growth of melanin-pigmented cells” (North Carolina State University, priority 1988, dated 1989) come the findings set out here.

Read-outs that look alike come from different tables or passages of the source.

In data set [1] the test system is S91 melanoma. In words: Effects of Various Cyclic Amines on Growth of Pigmented Melanoma Cells (Table III), S91. The conditions noted are these: for inhibition at 13800 µM: Mus musculus, read-out: Percent Inhibition, S91 melanoma. In kind it is cell-based, mouse. The procedure: (§1) Pigmented S91 melanoma and unpigmented L929 fibroblast cells were treated with various cyclic amines at a concentration of 13.8 mM as described in Example 1 above.

In another data set the test system is melanin-pigmented cells. Put plainly: In vitro selective inhibition of melanin-pigmented cells, effective dosage/time regimens. In kind it is cell-based.
The test system of data set [2] is L929 fibroblast. Put plainly: Effects of Various Cyclic Amines on Growth of Pigmented Melanoma Cells (Table III), L929. In kind it is cell-based, mouse. To be noted: for inhibition at 13800 µM: Mus musculus, read-out: Percent Inhibition, L929 fibroblast. The procedure:
as §1

A short description of a further data set: in vitro. To be noted: mouse, l929 cells.
For data set [3], the system named is HFH-LP. In words: Effect of Cyclic Amines on Growth Rate of Pigmented Melanoma (Table I), HFH-LP. In kind it is cell-based, mouse.
Protocol: (§3) These cell cultures include low passage HFH (HFH-LP), a pigmented line derived from the B-16 mouse melanoma, and NP, an amelanotic clone of HFH-LP. […] These cells were maintained as monolayers in Corning plastic flasks in Minimum Essential Medium (Eagle) with Earle's salts supplemented with 10% fetal bovine serum, 100 units of penicillin, 100 mg of streptomycin and 5 mg of amphotericin B per ml in 5% CO2 humidified air at 37° C.
(§4) Prior to dose-response studies, single cell suspensions were prepared in medium following trypsinization and inoculated into Falcon Multiwell plates (2 cm^2 wells) at 3.5×10^4 cells per 0.5 ml of medium. Cultures were maintained for 24 hours before exposure.
(§5) This stock solution was used to prepare test concentrations of the drug in culture medium. […] Cells were exposed to each of these concentrations by adding 0.5 ml of each of the solutions to triplicate test wells and incubating the cells under exposure at 37° C. for 1 hour. […] Cells were harvested after 48 hours and counted with a hemacytometer.
Data set [4] relates to NP. In words: cells. The conditions noted are these: Mus musculus, 1.5 h, read-out: Effect on Growth Rate (inhibition), NP.
Protocol: as §3, §4, §5
In data set [5] the test system is S91 (Cloudman S91 mouse melanoma). Put plainly: Effect of Cyclic Amines on Survival of Pigmented Melanoma (Table II), S91. The conditions noted are these: 24 h, read-out: percentage dead, S91.
Protocol: (§6) These cells were maintained as monolayers in Corning plastic flasks in Minimum Essential Medium (Eagle) with Earle's salts supplemented with 10% fetal bovine serum, 100 units of penicillin, 100 mg of streptomycin and 5 mg of amphotericin B per ml in 5% CO2 humidified air at 37° C.
as §4, §5
In data set [6] the test system is HFH-LP. In words: Effect of Cyclic Amines on Survival of Pigmented Melanoma (Table II), HFH-LP. The conditions noted are these: Mus musculus, 24 h, read-out: percentage dead, HFH-LP.
Protocol: as §6, §4, §5
The test system of data set [7] is RPMI-1641. To be noted: lightly pigmented RPMI 1641.
From the text: (§7) These cell cultures include low passage HFH (HFH-LP), a pigmented line derived from the B-16 mouse melanoma, and NP, an amelanotic clone of HFH-LP. High passage HFH (HFH-HP) was derived from HFH-LP after 30 passages in vitro. […] These cell cultures further include Cloudman S91 mouse melanoma, RPMI 1846 (a Syrian hamster melanoma), baby hamster kidney (BHK) and Chinese hamster ovary (CHO). These cells were maintained as monolayers in Corning plastic flasks in Minimum Essential Medium (Eagle) with Earle's salts supplemented with 10% fetal bovine serum, 100 units of penicillin, 100 mg of streptomycin and 5 mg of amphotericin B per ml in 5% CO2 humidified air at 37° C.
(§8) Single cell suspensions were prepared as described above. Twenty-four hours after seeding, the cells were exposed to either (a) culture medium alone, or (b) culture medium containing 0.5 mM theophylline.
(§9) The values given are the mean from 6 replicates.
In the next data set the test system is L929. In words: cells. To be noted: Mus musculus, L929, read-out: Growth inhibition, Theo. Alone vs. control.
The next data set deals with BHK. Put plainly: cells. To be noted: Mesocricetus auratus, read-out: Growth inhibition, Theo. Alone vs. control.
The next data set deals with HFH-HP. In words: cells. The conditions noted are these: Mus musculus, read-out: Growth inhibition, Theo. Alone vs. control.
Data set [8] deals with HFH-LP. In words: cells. The conditions noted are these: Mus musculus, read-out: Growth inhibition, Theo. Alone vs. control.
From the text: as §7, §8, §9
Data set [9] concerns RPMI-1641. In words: cells. The conditions noted are these: read-out: Growth inhibition, Theo. Alone vs. control.
From the text: as §7, §8, §9
For a further data set, the system named is RPMI 1946 cells. Put plainly: Pigmentation and growth of cells exposed to theophylline, RPMI 1946. The conditions noted are these: theophylline exposure. The class given is cell-based, Syrian hamster.
For data set [10], the system named is Unpigmented NP, CHO and mouse fibroblast L929 cells. Put plainly: Enhancement of toxicity by theophylline pretreatment, unpigmented cells. In kind it is cell-based, mouse; Chinese hamster.
Protocol: Twenty-four hours after seeding, the cells were exposed to either (a) culture medium alone, or (b) culture medium containing 0.5 mM theophylline.
In data set [11] the test system is NP. In words: cells. The conditions noted are these: Mus musculus, read-out: Growth inhibition, Theo. Alone vs. control.
From the text: as §7, §8, §9
Another data set relates to HFH-LP and HFH-HP. Put plainly: Pigmentation and growth of cells exposed to theophylline, HFH-LP and HFH-HP. To be noted: theophylline exposure. The class given is cell-based, mouse.
For data set [12], the system named is S91 melanoma. Put plainly: Effect of High Dose Exposure to Piperidino 1,2-Propanediol (Table V), S91. The conditions noted are these: 30 min. exposure. In kind it is cell-based, mouse. The source says: (§2) Pigmented S91 melanoma and nonpigmented L929 fibroblast cells were exposed to high doses of piperidino 1,2-propanediol.
Data set [13] deals with L929 fibroblast. Put plainly: Effect of High Dose Exposure to Piperidino 1,2-Propanediol (Table V), L929. The class given is cell-based, mouse. The conditions noted are these: 30 min. exposure.
From the text: as §2

Setting [14] is: S91, 1 Hour Exposure to 13.8 mM.
Where [15] appears, read: L929, 1 Hour Exposure to 13.8 mM.

From the text for BHK: as §7, §8, §9
Protocol for HFH-LP and HFH-HP: as §8
Protocol for RPMI 1946 cells: as §8

Turning to `CN1CCN(C)CC1` [1,4-dimethylpiperazine], the values for the inhibition at 13800 µM in the data set with S91 melanoma [1] (setting [14]) and with L929 fibroblast [2] (setting [15]) were 99% and 0%, respectively. For the same molecule, the “in vitro effectiveness of dosage/time regimen” value in the data set with melanin-pigmented cells (13.8 mM for 1 hour) was “effective in vitro for inhibiting the growth of melanin-pigmented cells with little or no effect upon unpigmented cells”.

Consider `CN1CCNCC1` [1-methylpiperazine], for which the inhibition at 13800 µM was determined as 99% in the data set with S91 melanoma [1] (setting [14]) and 0% with L929 fibroblast [2] (setting [15]). The “in vitro effectiveness of dosage/time regimen” value with melanin-pigmented cells (13.8 mM for 1 hour) is recorded as “effective in vitro for inhibiting the growth of melanin-pigmented cells with little or no effect upon unpigmented cells”.

Consider `CN1CCCCC1` [1-methylpiperidine], for which the inhibition at 13800 µM with S91 melanoma [1] (setting [14]) is 99%; with L929 fibroblast [2] (setting [15]) it was 4%. In the data set with melanin-pigmented cells (13.8 mM for 1 hour), the “in vitro effectiveness of dosage/time regimen” value is reported as “effective in vitro for inhibiting the growth of melanin-pigmented cells with little or no effect upon unpigmented cells”.

Regarding `CC1CNC(C)CN1` (stereo not shown) [2,5-dimethylpiperazine], the figures for the inhibition at 13800 µM with S91 melanoma [1] (setting [14]) and in the data set on L929 fibroblast [2] (setting [15]) were 97% and 0%, respectively. Besides, in the data set with melanin-pigmented cells (13.8 mM for 1 hour), the “in vitro effectiveness of dosage/time regimen” value is on record as “effective in vitro for inhibiting the growth of melanin-pigmented cells with little or no effect upon unpigmented cells”.

As to `c1cc(N2CCCCC2)ccn1` [4-piperidinopyridine], the inhibition at 13800 µM with S91 melanoma [1] (setting [14]) is 99%; in the data set with L929 fibroblast [2] (setting [15]), 14%. Further, the “in vitro effectiveness of dosage/time regimen” value in the data set with melanin-pigmented cells (13.8 mM for 1 hour) and in the data set with melanin-pigmented cells (35 mM for 30 minutes) was “effective in vitro for inhibiting the growth of melanin-pigmented cells with little or no effect upon unpigmented cells” in each case.

For `CCN1CCOCC1` [N--ethylmorpholine, reference compound], the inhibition at 13800 µM with S91 melanoma [1] (setting [14]) and with L929 fibroblast [2] (setting [15]) was 0% throughout.

In the case of `CN1CCOCC1` [N--methylmorpholine, reference compound], the inhibition at 13800 µM in the data set with S91 melanoma [1] (setting [14]) and in the data set with L929 fibroblast [2] (setting [15]) was 0% each time.

As to `c1ccncc1` [Pyridine, reference compound], the inhibition at 13800 µM in the data set with S91 melanoma [1] (S91, 1 h) came out at 0%; in the data set on L929 fibroblast [2] (L929, 1 h), 0%.

Take `C1CNCCN1` [piperazine]: the cytotoxicity at 24 h, 13800 µM in “in vitro” is -101%. Moreover, the inhibition at 13800 µM amounted to 24 ± 9% in the data set with HFH-LP [3] (Mus musculus, 13.8 mM for 1.5 hr, mean ± S.E., 6 replicates, read-out: Effect on Growth Rate (inhibition), HFH-LP); 70% in the data set on S91 melanoma [1] (setting [14]); 0% in the data set on NP [4]; 0% with L929 fibroblast [2] (setting [15]). Further, the “inhibition of pigmented cell line HFH-LP (in words)” value in the data set on HFH-LP [3] (not as effective as morpholine at the dosage tested) is given as “selectively inhibitory to the pigmented cell line HFH-LP, although not as effective as morpholine”. The “in vitro effectiveness of dosage/time regimen” value in the data set with melanin-pigmented cells (13.8 mM for 1 hour) is recorded as “effective in vitro for inhibiting the growth of melanin-pigmented cells with little or no effect upon unpigmented cells”. In addition, the figures for the cytotoxicity at 13800 µM (in data set [5]; with HFH-LP [6]) were 46 ± 5% and -44 ± 4%, respectively.

As to `Cn1c(=O)c2[nH]cnc2n(C)c1=O` [theophylline, reference compound], the sensitization to morpholine result in the data set on RPMI-1641 [7] is “sensitized the lightly pigmented RPMI 1641 cell line to morpholine”. In addition, the inhibition at 500 µM was -87% in the data set on L929; 20% in the data set with BHK; 40% with HFH-HP; 35% with HFH-LP [8]; 35% in the data set with RPMI-1641 [9]; 11% in the data set with NP [11]. Moreover, the growth rate entry in the data set on RPMI 1946 cells is “similarly affected”. Moreover, the pigmentation entry in the data set on RPMI 1946 cells is “no visible change in pigmentation”. In addition, in [10], the “effect of theophylline pretreatment on unpigmented cells” value was “remained unaffected”. The “growth rate of the cells” value in the data set on HFH-LP and HFH-HP is “decreased”. For the same molecule, the “pigmentation of the treated cells” value in the data set on HFH-LP and HFH-HP was “visible increase in pigmentation”.

Consider “piperidino 1,2-propanediol [piperidino1,2-propanediol]”, for which the “% inhibition, S91 melanoma” value in the data set on S91 melanoma [12] (13.8 mM) was 16%; with S91 melanoma [12] (34.5 mM), 44%; with S91 melanoma [12] (69 mM), 81%; in the data set on S91 melanoma [12] (138 mM) it was 91%. For the same molecule, the “% inhibition, L929 fibroblast” value in the data set with L929 fibroblast [13] (13.8 mM) turned out to be 0%; in the data set with L929 fibroblast [13] (34.5 mM) it was 7%; in the data set on L929 fibroblast [13] (69 mM), 10%; in the data set on L929 fibroblast [13] (138 mM) it was 19%. The “Percent Inhibition, S91 melanoma” value in the data set on S91 melanoma [1] (1 Hour Exposure to 13.8 mM) worked out at 46%. The “in vitro effectiveness of dosage/time regimen” value in the data set with melanin-pigmented cells (13.8 mM for 1 hour) and in the data set with melanin-pigmented cells (35 mM for 30 minutes) was “effective in vitro for inhibiting the growth of melanin-pigmented cells with little or no effect upon unpigmented cells” each time. Besides, the “Percent Inhibition, L929 fibroblast” value in the data set on L929 fibroblast [2] (1 Hour Exposure to 13.8 mM) was 1%.
